Measured values from ChEMBL document CHEMBL1201862, “PubChem BioAssay data set” (2004).
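Step 1: Grow cells in 96-well plates. Step 2: Expose to compound for 48 hours at 5 concentrations. Step 3: Interpolate endpoints linearly; if unreached, use highest concentration. At the GI50, growth is halved.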 Active and inactive are the calls of the source. Cut-off read from the data, not from the text of the source: active = GI50 up to about 1.1 µM and inactive = higher.

How the values were obtained:
Assay in all cases: DTP human tumour cell line panel, 48 h
[1] = system: 786-0
[2] = system: DU-145
[3] = system: HCC 2998
[4] = system: HOP-92
[5] = system: KM12
[6] = system: MOLT-4
[7] = system: NCI-H226
[8] = system: OVCAR-8
[9] = system: PC-3
[10] = system: SF-539
[11] = system: SK-MEL-2
[12] = system: SR
[13] = system: SW-620
[14] = system: TK-10
[15] = system: U-251
[16] = system: UACC-257
[17] = system: UACC-62
[18] = system: A498
[19] = system: SK-MEL-5
[20] = system: T47D

Row | Compound | GI50 [1] | GI50 [2] | GI50 [3] | GI50 [4] | GI50 [5] | GI50 [6] | GI50 [7] | GI50 [8] | GI50 [9] | GI50 [10] | GI50 [11] | GI50 [12] | GI50 [13] | GI50 [14] | GI50 [15] | GI50 [16] | GI50 [17] | GI50 [18] | GI50 [19] | GI50 [20]
1 | COc1ccc2cc(NC(=O)N/N=C\c3ccc(Cl)cc3)ccc2c1 | 40 µM (inactive) | > 100 µM (inactive) | > 100 µM (inactive) | > 100 µM (inactive) | > 100 µM (inactive) | > 100 µM (inactive) | > 100 µM (inactive) | 96.8 µM (inactive) | > 100 µM (inactive) | 43.1 µM (inactive) | > 100 µM (inactive) | > 100 µM (inactive) | > 100 µM (inactive) | > 100 µM (inactive) | 41.2 µM (inactive) | > 100 µM (inactive) | 40.3 µM (inactive) |  |  | 
2 | Cc1nc2c(o1)C(=O)c1ccccc1/C2=N/c1ccccn1 | 25.6 µM (inactive) |  | 21.9 µM (inactive) | 18.2 µM (inactive) | 21.7 µM (inactive) | 17.7 µM (inactive) |  | 15.4 µM (inactive) | 30.8 µM (inactive) | 18.2 µM (inactive) | 18.8 µM (inactive) | 24.1 µM (inactive) | 17.8 µM (inactive) | > 100 µM (inactive) | 16.8 µM (inactive) | 14 µM (inactive) | 20 µM (inactive) | 16.7 µM (inactive) | 16.7 µM (inactive) | 
3 | Cc1cc(S(=O)(=O)Nc2nc3ccccc3c(=O)n2N)c(S)cc1Cl | 21.3 µM (inactive) | 43 µM (inactive) | 49.3 µM (inactive) |  | 37.2 µM (inactive) | 47.6 µM (inactive) | 21.7 µM (inactive) | 30.2 µM (inactive) | 69.3 µM (inactive) | 27.6 µM (inactive) | 29.3 µM (inactive) |  | 59.8 µM (inactive) | 48.1 µM (inactive) | 23.1 µM (inactive) | 59.8 µM (inactive) | 20.7 µM (inactive) |  | 29.6 µM (inactive) | 
4 | O=C1C2=Cc3ccccc3CCN2c2ccccc21 | 19.6 µM (inactive) | > 75.3 µM (inactive) | 7.31 µM (inactive) | 28.8 µM (inactive) | 26.7 µM (inactive) | 18.7 µM (inactive) | 13.9 µM (inactive) | 23.6 µM (inactive) | 35.2 µM (inactive) | 16.4 µM (inactive) | 21 µM (inactive) | 14.9 µM (inactive) | 20.4 µM (inactive) | > 100 µM (inactive) | > 31.6 µM (inactive) | 27.2 µM (inactive) | > 10 µM (inactive) | 16.3 µM (inactive) | 17.3 µM (inactive) | 
5 | CC1(C)CC(=O)c2c(nc(SSc3nc4c(c(-c5ccccc5)c3C#N)C(=O)CC(C)(C)C4)c(C#N)c2-c2ccccc2)C1 | > 10 µM (inactive) | > 10 µM (inactive) | > 10 µM (inactive) | > 10 µM (inactive) | > 10 µM (inactive) | > 10 µM (inactive) | > 10 µM (inactive) | > 10 µM (inactive) | > 10 µM (inactive) | > 10 µM (inactive) | > 10 µM (inactive) |  | > 10 µM (inactive) | > 10 µM (inactive) | > 10 µM (inactive) | > 10 µM (inactive) |  | > 10 µM (inactive) | > 10 µM (inactive) | > 10 µM (inactive)
6 | O=C(CC1(O)CCCCC1)OC1CCCC1 | > 100 µM (inactive) | > 100 µM (inactive) |  | > 100 µM (inactive) | > 100 µM (inactive) |  | > 100 µM (inactive) | > 100 µM (inactive) | > 100 µM (inactive) | > 100 µM (inactive) | > 100 µM (inactive) |  |  | > 100 µM (inactive) | > 100 µM (inactive) | > 100 µM (inactive) | > 100 µM (inactive) | > 100 µM (inactive) | > 100 µM (inactive) | > 100 µM (inactive)
7 | COC(=O)/C(=N\N)C(C(=O)C(=O)Nc1cccc([N+](=O)[O-])c1)c1nc2ccc(C(=O)c3ccccc3)cc2nc1O (stereo not drawn) | > 100 µM (inactive) | > 100 µM (inactive) | > 100 µM (inactive) | 35.7 µM (inactive) | > 100 µM (inactive) | 15 µM (inactive) | > 100 µM (inactive) | > 100 µM (inactive) | 84.5 µM (inactive) | > 100 µM (inactive) | > 100 µM (inactive) |  | > 100 µM (inactive) | 39.9 µM (inactive) | > 100 µM (inactive) | > 100 µM (inactive) | 96.2 µM (inactive) |  | 71 µM (inactive) | 
8 | CSc1nc(Cl)c2c(n1)Sc1nc3cc4c(cc3n1C2O)OCO4 (stereo not drawn) | 0.321 µM (active) | 0.318 µM (active) | 1.66 µM (inactive) |  | 0.194 µM (active) |  | 1.1 µM (active) | 0.575 µM (active) | 0.306 µM (active) | 0.126 µM (active) | 0.726 µM (active) |  | 0.33 µM (active) | 1.65 µM (inactive) | 0.791 µM (active) | > 58.7 µM (inactive) | 0.43 µM (active) | 3.44 µM (inactive) | 0.526 µM (active) | 
9 | O=C1c2ccccc2C2=Nc3ccncc3CN12 | > 100 µM (inactive) | > 100 µM (inactive) | > 100 µM (inactive) | > 100 µM (inactive) | 90.2 µM (inactive) | > 100 µM (inactive) | > 100 µM (inactive) | > 100 µM (inactive) | > 100 µM (inactive) | > 100 µM (inactive) | > 100 µM (inactive) | > 100 µM (inactive) | > 100 µM (inactive) | > 100 µM (inactive) | > 100 µM (inactive) | > 100 µM (inactive) | > 100 µM (inactive) |  | > 100 µM (inactive) | 
10 | CCN(CC)CCC(=O)OC1C(C)=CC(C)C(=O)CC(C(C)CC2CCC(O)C(OC)C2)OC(=O)C2CCCCN2C(=O)C(=O)[C@@]2(O)OC(CCC2C)CC(OC)\C(C)=C/C=C/C=C/C(C)CC(C)C(=O)C1OC (stereo partly drawn) | 7.91 µM (inactive) |  | 1.87 µM (inactive) | < 0.01 µM (active) | 7.98 µM (inactive) |  | 12.9 µM (inactive) |  | < 0.01 µM (active) | < 0.01 µM (active) |  | < 0.01 µM (active) | 11.6 µM (inactive) | 5.69 µM (inactive) | 10.4 µM (inactive) | 13.3 µM (inactive) |  | < 0.01 µM (active) |  | < 0.01 µM (active)
11 | Cc1csc(-n2nc(C)cc2C)n1 | > 100 µM (inactive) | > 100 µM (inactive) | > 100 µM (inactive) |  | > 100 µM (inactive) | 2.38 µM (inactive) | > 100 µM (inactive) | > 100 µM (inactive) | > 100 µM (inactive) | > 100 µM (inactive) | > 100 µM (inactive) |  | > 100 µM (inactive) | > 100 µM (inactive) | > 100 µM (inactive) | > 100 µM (inactive) | > 100 µM (inactive) | > 100 µM (inactive) | > 100 µM (inactive) | > 100 µM (inactive)
12 | COC(=O)/C=c1/c2ccccc2n2c1c1ccccc1[n+]2C | 2.99 µM (inactive) | 6.41 µM (inactive) | 2.35 µM (inactive) |  | 2.71 µM (inactive) | 4.27 µM (inactive) | 5.52 µM (inactive) | 3.33 µM (inactive) | 2.81 µM (inactive) | 3.82 µM (inactive) | 4.08 µM (inactive) |  | 2.76 µM (inactive) | 2.67 µM (inactive) | 2.61 µM (inactive) | 2.58 µM (inactive) | 6.73 µM (inactive) | 4.18 µM (inactive) | 2.81 µM (inactive) | 3.86 µM (inactive)
13 | Cc1ccccc1Nc1nc2ccccc2nc1NS(=O)(=O)c1ccccc1 | > 100 µM (inactive) |  | > 100 µM (inactive) | 47.5 µM (inactive) | > 100 µM (inactive) | > 100 µM (inactive) | > 100 µM (inactive) | > 100 µM (inactive) | > 100 µM (inactive) | 59.7 µM (inactive) | > 100 µM (inactive) | > 100 µM (inactive) | > 100 µM (inactive) | > 100 µM (inactive) | 67.9 µM (inactive) | > 100 µM (inactive) | 62.2 µM (inactive) |  | > 100 µM (inactive) | > 100 µM (inactive)
14 | CCOC(=S)SCC(=O)O | > 100 µM (inactive) |  |  | > 100 µM (inactive) | > 100 µM (inactive) | > 100 µM (inactive) | > 100 µM (inactive) | > 100 µM (inactive) | > 100 µM (inactive) | > 100 µM (inactive) | > 100 µM (inactive) | > 100 µM (inactive) | > 100 µM (inactive) | > 100 µM (inactive) | > 100 µM (inactive) | > 100 µM (inactive) | > 100 µM (inactive) | > 100 µM (inactive) | > 100 µM (inactive) | > 100 µM (inactive)
15 | CC(=O)ON(OC(C)=O)c1ccc(C)cc1 | > 100 µM (inactive) | > 100 µM (inactive) | > 100 µM (inactive) | > 100 µM (inactive) | > 100 µM (inactive) | > 100 µM (inactive) |  | > 100 µM (inactive) | > 100 µM (inactive) |  | > 100 µM (inactive) |  | > 100 µM (inactive) | > 100 µM (inactive) | > 100 µM (inactive) | > 100 µM (inactive) | > 100 µM (inactive) | > 100 µM (inactive) | > 100 µM (inactive) | 
16 | Cc1cc(NS(=O)(=O)c2ccc(/N=N/c3c(O)c(C(=O)O)cc4ccccc34)cc2)nc(C)n1 | > 100 µM (inactive) |  | > 100 µM (inactive) | > 100 µM (inactive) | > 100 µM (inactive) | > 100 µM (inactive) | > 100 µM (inactive) | > 100 µM (inactive) | > 100 µM (inactive) | > 100 µM (inactive) | > 100 µM (inactive) | > 100 µM (inactive) | > 100 µM (inactive) | > 100 µM (inactive) | > 100 µM (inactive) | > 100 µM (inactive) | > 100 µM (inactive) |  | > 100 µM (inactive) | 
